In article PMC9173638 (PLoS Genetics, 2022):
“And” between values parts separate entries of the source, which are not always exact repeats. Equal values may be shown once. “Also recorded” adds a separate entry of the source. No end group written: not given here.

What was measured:
PepF [1] = test: Screening of sXIP variants for susceptibility to PepF degradation; assay type: in vitro ADME, Streptococcus salivarius HSISS4; settings: for percentage of signal loss: peptide 500 nM pre-incubated with PepF 7 nM, 4 h, 37°C vs without PepF, PcomS-luxAB ΔcomS reporter luminescence, mean of technical triplicates; for peptidase resistance in the screening: PepF 7 nM, peptide 500 nM, signal loss compared with native XIP
Experimental: We next investigated which residues of the pheromone are crucial for peptidase cleavage and screened 20 peptides variants with single XIP mutations. We incubated those peptides with PepF at a mid-range concentration previously identified for the native XIP ([PepF] of 7 nM and [XIP] of 500 nM). Next, we added the peptides incubated or not with PepF to the PcomS-luxAB ΔcomS reporter strain and analyzed the percentage of signal loss upon incubation with the peptidase. […] To quantify more accurately the PepF resistance of variants at those two positions, we used the same degradation assay as used for native sXIP and measured the EC50 for each variant (Figs 5A and S5). Since F4W, F4Y and A5I variants were the most resistant, we combined mutations at positions 4 and 5 in a single peptide to increase its robustness to degradation. […] Because our degradation assay is based on an indirect method of quantification through the use of a reporter strain, bias could be introduced by the effect of the mutations on the ComR-pheromone affinity. To rule out this possibility, we measured the ComR-binding properties of the peptides by electrophoretic mobility shift assays (S6 Fig). Since no correlation between peptide-binding to ComR and pheromone sensitivity to degradation could be drawn, we concluded that the luciferase degradation assay reflects the peptide susceptibility to PepF.
Supplementary file pgen.1010198.s004.tif: S4 Fig Screening of sXIP variants for competence activation and susceptibility to PepF degradation. Specific maximum luciferase activity (RLU/OD600) upon peptide addition is plotted against the loss of signal with the peptide pre-incubated with PepF (plotted as a percentage of signal loss). A total number of 20 sXIP variants of the native S. salivarius sXIP (LPYFAGCL) were tested. The different peptides (500 nM) were incubated during 4 h at 37°C with or without PepF (7 nM). The reaction mixture was then 10-fold diluted by addition to an exponential growing culture (CDM) of the reporter strain defective for the genetically-encoded pheromone XIP (PcomS-luxAB ΔcomS). Dots represents mean of technical triplicates. […] Red/blue dots denote peptides discarded/selected for subsequent characterization due to their weak/strong induction of competence. (TIF) Click here for additional data file.

PepF [2] = test: recombinant PepF in reaction buffer (20 mM Tris HCl, pH 7.0); settings: S. salivarius HSISS4, 37°C, up to 4 h
PepF [3] = test: Kinetics of peptide degradation by PepF; assay type: in vitro ADME, Streptococcus salivarius HSISS4; settings: PepF 8 nM, peptide 500 nM, 6 h, 37°C
Experimental: Fig 5 Degradation of PepF-resistant sXIP peptides. (A) PepF degradation efficiency for XIP (LPY[F/Y/W][A/M/I/V]GCL) variants. […] Bars denote standard deviations on the EC50 computation. (B) XIP and XIPF4WA5I kinetics of degradation by PepF. PepF (8 nM) and the peptides (500 nM) were incubated 6 hours at 37°C and sampled every hour for analysis. Reaction was stopped by adding 1 mM EDTA and further added to the PcomS-luxAB ΔcomS reporter strain as previously described. Dots show technical triplicates, the line connects mean values with error bars (standard deviation).
(§1) sXIP and derivatives were incubated at 500 nM with PepF at different concentrations ranging from 100 to 0.025 nM during 4 h at 37°C as described in the previous section. 30 μL of the mix was then added to 270 μL of exponential phase culture of a PcomS reporter strain defective for the pheromone (PcomS-luxAB ΔcomS) and maximum luciferase activity was computed as reported above. Maximum values obtained were normalized by the signal recorded for the peptide incubated without the peptidase and enzyme concentration affording half luminescence (EC50) was extrapolated using Graphpad Prism and the non-linear extrapolation equation: Signal=b+(t−b)/(1+IC50/[PepF]^HS) where t stands for top, b for bottom, and HS for Hill-Slope.

PepF [4] = target: PepF (Streptococcus salivarius K12, UniProt J7TQB7); assay type: in vitro ADME, Streptococcus salivarius HSISS4; settings: PepF gradient, peptide 500 nM, 4 h, 37°C
Experimental: (§2) Overnight precultures were diluted at a final OD600 of 0.05. A volume of 300 μL of culture samples was transferred in the wells of a sterile covered white microplate with a transparent bottom (Greiner, Alphen a/d Rijn, The Netherlands). These culture samples were supplemented with D-xylose or IPTG if stated or further incubated for 100 min at 37°C before supplementation with sXIP or other peptides variants. Growth (OD600) and luciferase (Lux) activity (expressed in relative light units, RLU) were monitored at 10 min intervals during 6 to 24 h in a Hidex Sense microplate reader (Hidex, Lemminkäisenkatu, Finland). Specific or maximum specific Lux activity were obtained by dividing Lux activity by the OD600 for each measurement and summing all the data obtained over time or selecting the maximum value, respectively. Biological or technical triplicates were then averaged. Statistical analyses of simple and multiple comparisons to the control mean were performed with t-test (unilateral distribution, heteroscedastic) and one-way ANOVA with Dunnett’s test, respectively. For both, standard deviations and P values were calculated.
For PepF purification, the PCR-amplified pepF gene from strain HSISS4 was cloned into the pBAD-covR-STN-ter vector [24]. […] Protein purity was analyzed by SDS-PAGE and concentration was measured using a Nanodrop apparatus (A280 method; ThermoFisher Scientific). […]

PepFSsa = assay type: in vitro ADME, Streptococcus salivarius HSISS4; settings: from EC50 values
Experimental: as §1
Supplementary file pgen.1010198.s009.tif: S9 Fig Conservation of PepF in salivarius streptococci and susceptibility of S. vestibularis sXIP to PepF degradation. (A) Alignment of PepF performed with CLC Main Workbench multiple alignment tool (http://www.clcbio.com/products/clc-main-workbench/). PepF from 4 representative strains (i.e. S. salivarius HSISS4, S. thermophilus LMD-9, S. thermophilus LMG18311 and S. vestibularis NTC12167) were used for the alignment. Red, orange, and yellow denote 100%, 75%, and 50% conservation, respectively. The conserved Zinc-binding motif HEXXH is underlined. […]

[5] = tested on: PcomS-luxAB ΔcomS reporter strain; test: Screening of sXIP variants for competence activation; assay type: cell-based, Streptococcus salivarius; settings: peptide 500 nM incubated 4 h 37°C without PepF, 10-fold diluted into PcomS-luxAB ΔcomS culture (CDM); mean of technical triplicates
Experimental: as §2
Supplementary file pgen.1010198.s004.tif: S4 Fig Screening of sXIP variants for competence activation and susceptibility to PepF degradation. […]

Chain of PepF (Streptococcus salivarius K12, UniProt J7TQB7) (J7TQB7 entry or part of it): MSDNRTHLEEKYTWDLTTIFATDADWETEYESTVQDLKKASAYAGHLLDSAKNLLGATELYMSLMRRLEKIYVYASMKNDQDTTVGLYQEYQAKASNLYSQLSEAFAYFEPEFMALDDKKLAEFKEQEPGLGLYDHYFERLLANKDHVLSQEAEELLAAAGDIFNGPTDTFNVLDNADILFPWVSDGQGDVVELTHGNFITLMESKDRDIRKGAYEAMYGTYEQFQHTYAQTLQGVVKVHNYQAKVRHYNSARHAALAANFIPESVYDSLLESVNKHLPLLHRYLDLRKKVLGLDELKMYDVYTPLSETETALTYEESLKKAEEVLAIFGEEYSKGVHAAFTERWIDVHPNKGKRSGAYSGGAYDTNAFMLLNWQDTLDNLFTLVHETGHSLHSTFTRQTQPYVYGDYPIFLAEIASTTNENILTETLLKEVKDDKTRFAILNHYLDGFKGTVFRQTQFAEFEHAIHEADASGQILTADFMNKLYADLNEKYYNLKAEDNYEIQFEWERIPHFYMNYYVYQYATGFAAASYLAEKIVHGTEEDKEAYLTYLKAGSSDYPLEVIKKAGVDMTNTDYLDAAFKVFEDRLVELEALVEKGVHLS

| Substance | percentage of signal loss (PepF [1]) | also measured |
| --- | --- | --- |
| APYFAGCL [APYFAGCL] | 87.3461% and 90.7518% |  |
| APYFMGCL [APYFMGCL] | 99.0138% |  |
| ITILPYFAGCL [ITILPYFAGCL] | 99.5087% |  |
| LAYFAGCL [LAYFAGCL] | 40.0979% |  |
| LPAFAGCL [LPAFAGCL] | 83.5452% |  |
| LPWFAGCL [LPWFAGCL] | 97.3022% |  |
| LPYAAGCL [LPYAAGCL] | 77.0857% |  |
| LPYFAACL [LPYFAACL] | 99.6712% |  |
| LPYFAGAL [LPYFAGAL] | 99.8977% |  |
| LPYFAGCL |  | cleaved bond (PepF [2]): F4-A5, major; also recorded: A5-G6, major |
| LPYFAGCL [sXIP, reference compound] | 99.5932% |  |
| LPYFAICL [LPYFAICL] | 1.804% |  |
| LPYFGGCL [LPYFGGCL] | 69.5765% |  |
| LPYFIGCL [LPYFIGCL] | 78.4996% | peptidase resistance in the screening (PepF [1]): higher peptidase resistance |
| LPYFMGCL [LPYFMGCL] | 85.0947% | peptidase resistance in the screening (PepF [1]): higher peptidase resistance |
| LPYFMICL [LPYFMICL] | 10.0484% |  |
| LPYFTGCL [LPYFTGCL] | 97.3896% |  |
| LPYFVGCL [LPYFVGCL] | 94.8201% |  |
| LPYWAGCL [LPYWAGCL] | 68.1634% | peptidase resistance in the screening (PepF [1]): higher peptidase resistance |
| LPYWIGCL [LPYWIGCL] |  | degradation kinetics compared to the WT pheromone (PepF [3]): reduced degradation kinetics; proteolysis by PepF in vitro (PepF [4]): slower proteolysis |
| LPYYAGCL [LPYYAGCL] | 89.6196% | peptidase resistance in the screening (PepF [1]): higher peptidase resistance |
| LPYYIGCL [LPYYIGCL] |  | proteolysis by PepF in vitro (PepF [4]): slower proteolysis |
| VPFFMIYY [sXIPSve] |  | PepF-mediated degradation, fold less efficient compared to XIPSsa/Sth (PepFSsa): ~ 15 fold |
| _PYFAGCL [sXIP variant of the screening lacking the first residue] |  | Max specific luciferase [5]: 1453.53 RLU/OD600 |
| _PYFMGCL [sXIP variant of the screening lacking the first residue] | 28.6586% | Max specific luciferase [5]: 2144.5 RLU/OD600 |
